A word on the Ki: it is the equilibrium dissociation constant of an inhibitor or competing ligand from its target.

The target of this test is T1, activated p38 (Homo sapiens, UniProt Q16539).
T1 construct: amplify the coding region of CSBP2 cDNA using a HeLa cell library; made in house; host or cells: Trichoplusia ni (Tn-368) High-Five insect cells, baculovirus (virus generated in Sf9)
T1 sequence (Q16539 whole entry): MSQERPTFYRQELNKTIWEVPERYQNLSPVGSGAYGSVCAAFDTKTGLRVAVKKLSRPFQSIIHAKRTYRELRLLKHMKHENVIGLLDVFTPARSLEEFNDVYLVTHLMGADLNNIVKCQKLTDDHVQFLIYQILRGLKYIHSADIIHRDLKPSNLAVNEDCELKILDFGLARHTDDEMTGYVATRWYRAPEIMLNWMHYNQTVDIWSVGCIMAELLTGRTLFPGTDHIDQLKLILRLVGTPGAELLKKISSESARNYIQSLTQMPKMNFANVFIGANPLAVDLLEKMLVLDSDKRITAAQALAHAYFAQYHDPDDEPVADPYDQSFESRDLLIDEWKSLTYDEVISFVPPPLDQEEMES
In words: p38 inhibition assay: inhibition of ATPase activity. Format: biochemical. The conditions noted are these: ATPase activity of activated p38 (60 nM), various ATP concentrations. The procedure: B. Inhibition of ATPase Activity
This assay is carried out in the presence of 10 mM MgCl2, 25 mM β-glycerophosphate, 10% glycerol and 100 mM HEPES buffer at pH 7.6. For a typical Ki determination, the Km for ATP in the ATPase activity of activated p38 reaction is determined in the absence of inhibitor and in the presence of two concentrations of inhibitor. A stock solution is prepared containing all of the above components and activated p38 (60 nM). The stock solution is aliquotted into vials. A fixed volume of DMSO or inhibitor in DMSO (final concentration of DMSO in reaction was 2.5%) is introduced to each vial, mixed and incubated for 15 minutes at room temperature. The reaction is initiated by adding various concentrations of ATP and then incubated at 30° C. After 30 minutes, the reactions are quenched with 50 μl of EDTA (0.1 M, final concentration), pH 8.0. The product of p38 ATPase activity, ADP, is quantified by HPLC analysis.
Separation of ADP from ATP is achieved on a reversed phase column (Supelcosil, LC-18, 3 μm, part no. 5-8985) using a binary solvent gradient of following composition: Solvent A—0.1 M phosphate buffer containing 8 mM tetrabutylammonium hydrogen sulfate (Sigma Chemical Co., catalogue no. T-7158), Solvent B—Solvent A with 30% methanol.
Ki is determined from the rate data as a function of inhibitor and ATP concentrations.
`O=C(c1ccc(N(C(=O)Cc2ccc(F)cc2)c2c(F)cccc2F)nc1)c1ccccc1Cl` [Compound 630] returned a Ki of 1 to 10 µM. On to `O=C(c1ccccc1)c1ccc(N(C(=O)OCc2ccccc2)c2c(F)cccc2F)nc1` [Compound 627], for which the Ki lay within 1 to 10 µM. Take `O=C(c1ccc(N(C(=O)Cc2ccc(F)cc2)c2c(F)cccc2F)nc1)c1sccc1-n1cccc1` [Compound 634]: the Ki lay in the range of 1 to 10 µM.

Values taken from patent publication US7271181B2, “Inhibitors of p38” (Vertex Pharmaceuticals Incorporated, priority 2001, dated 2007).
